According to PubChem BioAssay (NCI):
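All cell lines were grown in 96-well plates and treated with compound for 48 hours. At the GI50, growth is halved. TGI marks complete inhibition of growth.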

What was measured:
Test in all cases: NCI anticancer screen, dose series, 48 h
SK-OV-3 ovarian = test system: SK-OV-3 ovarian
SF-295 CNS = test system: SF-295 CNS
SK-MEL-28 melanoma = test system: SK-MEL-28 melanoma
HOP-62 NSCLC = test system: HOP-62 NSCLC
NCI-H460 lung = test system: NCI-H460 lung
KM12 colon = test system: KM12 colon
SF-539 CNS = test system: SF-539 CNS
NCI-H226 lung = test system: NCI-H226 lung
A549 NSCLC = test system: A549 NSCLC
EKVX NSCLC = test system: EKVX NSCLC

Structure (SMILES) | GI50 (SK-OV-3 ovarian) [µM] | TGI (SK-OV-3 ovarian) [µM] | GI50 (SF-295 CNS) [µM] | TGI (SF-295 CNS) [µM] | GI50 (SK-MEL-28 melanoma) [µM] | TGI (SK-MEL-28 melanoma) [µM] | GI50 (HOP-62 NSCLC) [µM] | TGI (HOP-62 NSCLC) [µM] | GI50 (NCI-H460 lung) [µM] | TGI (NCI-H460 lung) [µM] | GI50 (KM12 colon) [µM] | TGI (KM12 colon) [µM] | GI50 (SF-539 CNS) [µM] | TGI (SF-539 CNS) [µM] | GI50 (NCI-H226 lung) [µM] | TGI (NCI-H226 lung) [µM] | GI50 (A549 NSCLC) [µM] | TGI (A549 NSCLC) [µM] | GI50 (EKVX NSCLC) [µM] | TGI (EKVX NSCLC) [µM]
CC(C)(C)CC(C)(C)NCc1cc(C(C)(C)C)cc(CNC(C)(C)CC(C)(C)C)c1O | 2.52 | 8.45 | 3.23 | 11.7 | 5.24 | 17.6 | 4.69 | 17.9 | 3.49 | 12.9 | 3.32 | 11.2 | 5.16 | 17.8 | 2.25 | 8.89 | 3.97 | 14.7 | 2.78 | 14.1
CC(=O)[CH-]C(=O)c1ccccc1.CC(=O)[CH-]C(=O)c1ccccc1.CCOCC[O-].CCOCC[O-].[Ti+4] | 25.2 | 74.9 | 17.5 | 33.9 | 10.8 | 27.6 | 25.9 | 85.8 | 18.8 | 43.4 | 27.1 | 77.3 | 19.1 | 50.4 | 5.55 | 22.6 | 28.7 | 90.5 | 38.4 | 96.4
CCOC(=O)CC1C(COC(=O)NC)OC(n2cnc3c(NC(=O)Nc4ccccc4)ncnc32)C1O[Si](C)(C)C(C)(C)C (stereo not given) | 40.4 | > 100 | 2.83 | 15.1 | 7.77 | > 100 | 14.7 | 77.7 | 4.45 | 17.2 | 3.21 | 10.7 | 11.5 | 26.4 | 11.8 | 36.6 | 6.93 | > 100 | 3.39 | > 100
CCCC(CCC)C(=O)OCC1(CO)C/C(=C\c2ccc(F)cc2)C(=O)O1 (stereo not given) | 19.5 | 33.9 | 1.99 | 17.4 | 14.7 | 28 | 4.11 | 17 | 1.94 | 19.6 | 13.9 | 27.5 | 12 | 24.4 | 11.7 | 32.3 | 3.66 | 21.5 | 7.67 | 34.3
CC(C)(C)[Si](C)(C)OC1[C@@H](O[Si](C)(C)C(C)(C)C)[C@@H](CNC(=O)NC(=O)CCl)O[C@H]1n1cnc2c(NC(=O)Nc3ccccc3)ncnc21 (stereo not given in full) | 0.799 | 1.5 | 0.235 | 0.922 | 0.916 | 1.69 | 0.348 | 0.953 | 0.859 | 1.74 | 1.04 | 3.64 | 0.837 | 1.58 | 0.651 | 1.3 | 1.19 | 3.51 | 1.01 | 2.98
O=c1c2cccc3cccc(c4n1CCN=4)c32 | – | > 100 | – | > 100 | – | > 100 | – | > 100 | – | > 100 | – | > 100 | – | > 100 | – | > 100 | – | > 100 | – | > 100
COC(C(=O)NCCCCNC(=O)C(OC)c1ccccc1)c1ccccc1 (stereo not given) | – | > 100 | – | > 100 | – | > 100 | – | > 100 | – | > 100 | – | > 100 | – | > 100 | – | > 100 | – | > 100 | – | > 100
FC(F)(F)C1(Br)C(c2ccccc2)=C1c1ccccc1 | – | > 100 | – | 28.7 | – | 33.8 | – | 39.4 | – | 80.1 | – | 29.4 | – | 37 | – | 46.3 | – | 85.7 | – | > 100
Cc1cc(N2CCSCC2)nc(NC2CCCC(Nc3ccnc4cc(Cl)ccc34)C2)n1 (stereo not given) | 1.98 | 4.22 | 1.7 | 3.27 | 1.9 | 3.7 | 1.69 | 3.38 | 1.97 | 4.13 | 1.94 | 4.25 | 1.69 | 3.16 | 3.2 | 11 | 2.88 | 8.91 | 2.7 | 10.8
CC(C)(C)C(=O)OCC1CCC(n2cnc3c(=O)[nH]c(N)nc32)O1 (stereo not given) | – | > 100 | – | > 100 | – | > 100 | – | > 100 | – | > 100 | – | > 100 | – | > 100 | – | > 100 | – | > 100 | – | > 100
O=C(O)C(Cl)(c1ccccc1)c1ccccc1 | – | > 100 | – | > 100 | – | > 100 | – | > 100 | – | > 100 | – | > 100 | – | > 100 | – | > 100 | – | > 100 | – | > 100
CNC(=O)Cc1nc(-c2cccc(NS(=O)(=O)c3c(F)cccc3F)c2F)c(-c2ccnc(Nc3ccccc3)n2)s1 | 0.558 | 27.9 | 20.5 | > 50 | 0.0185 | > 50 | 3.27 | > 50 | 14.8 | > 50 | 14.2 | > 50 | 10.9 | > 50 | 8.73 | > 50 | 8.53 | > 50 | 22.4 | > 50
COc1cc(Nc2nc3ccccc3cc2C(=O)Nc2ccc(F)c(F)c2)cc(OC)c1OC | 2.65 | 7.8 | 2.85 | 10.2 | 3.54 | > 100 | 2.73 | 12.2 | 3.11 | > 100 | 2.89 | 16 | 3.65 | > 100 | 2.55 | 7.93 | 3.08 | > 100 | 2.87 | > 100
CCCCCCCCCCCCCCCCCC(=O)OCC(COC(=O)CCCN)OC(=O)CCCN (stereo not given) | – | 34.3 | – | 35.1 | – | 34.4 | – | 33.8 | – | 30.7 | – | 33.5 | – | 32.2 | – | 44.4 | – | 16.4 | – | 53.9
